What was measured:
[1] = biological target: T1, TYK2 (Homo sapiens, UniProt P29597); experiment: HEK-Blue IL-23 reporter assay (SEAP) for TYK2 pseudokinase inhibition; assay type: cell-based; design: HEK-Blue™ IL-23 and IFNα/β cells with a stably-integrated cytokine receptor and STAT3 or STAT1; host or cells: HEK-Blue IL-23 / HEK-Blue IFNα/β cells (HEK293 background); settings: HEK-Blue IL-23 cells, 10 ng/mL human recombinant IL-23, SEAP reporter; read-out: IL23 IC50
Experimental: (§1) HEK-Blue™ IL-23 and IFNα/β cells with a stably-integrated cytokine receptor and STAT3 or STAT1 express STAT-inducible secreted embryonic alkaline phosphatase (SEAP) reporter gene upon cytokine stimulation. These cells are plated in DMVEM (Gibco) containing 10% heat-inactivated FBS (Gibco) and 100 U/mL PenStrep (Gibco) at 37° C. under […] conditions for 20-22 hours. The cells are then pretreated with serially diluted test compounds for 60 min prior to stimulation with either 10 ng/mL human recombinant IL-23 (Miltenyl Biotech) or 1 ng/mL human recombinant IFNα (InvivoGen) for 22-24 hours for IL-23 or 16-18 h for IFNα. SEAP induction is measured using the QUANTI Blue™ Solution (InvivoGen) according to the manufacturer's instructions. Inhibition data are calculated by comparison to no inhibitor control wells for 000 inhibition and non-stimulated control wells for 10000 inhibition. Dose response curves are generated to determine the concentration required to inhibit 5000 of cellular response (IC50) as derived by non-linear regression analysis.

[2] = biological target: T1, TYK2; experiment: HEK-Blue IFNα/β reporter assay (SEAP) for TYK2 pseudokinase inhibition; assay type: cell-based; settings: HEK-Blue IFNα/β cells, 1 ng/mL human recombinant IFNα
Experimental: as §1

T1 sequence (P29597 whole entry): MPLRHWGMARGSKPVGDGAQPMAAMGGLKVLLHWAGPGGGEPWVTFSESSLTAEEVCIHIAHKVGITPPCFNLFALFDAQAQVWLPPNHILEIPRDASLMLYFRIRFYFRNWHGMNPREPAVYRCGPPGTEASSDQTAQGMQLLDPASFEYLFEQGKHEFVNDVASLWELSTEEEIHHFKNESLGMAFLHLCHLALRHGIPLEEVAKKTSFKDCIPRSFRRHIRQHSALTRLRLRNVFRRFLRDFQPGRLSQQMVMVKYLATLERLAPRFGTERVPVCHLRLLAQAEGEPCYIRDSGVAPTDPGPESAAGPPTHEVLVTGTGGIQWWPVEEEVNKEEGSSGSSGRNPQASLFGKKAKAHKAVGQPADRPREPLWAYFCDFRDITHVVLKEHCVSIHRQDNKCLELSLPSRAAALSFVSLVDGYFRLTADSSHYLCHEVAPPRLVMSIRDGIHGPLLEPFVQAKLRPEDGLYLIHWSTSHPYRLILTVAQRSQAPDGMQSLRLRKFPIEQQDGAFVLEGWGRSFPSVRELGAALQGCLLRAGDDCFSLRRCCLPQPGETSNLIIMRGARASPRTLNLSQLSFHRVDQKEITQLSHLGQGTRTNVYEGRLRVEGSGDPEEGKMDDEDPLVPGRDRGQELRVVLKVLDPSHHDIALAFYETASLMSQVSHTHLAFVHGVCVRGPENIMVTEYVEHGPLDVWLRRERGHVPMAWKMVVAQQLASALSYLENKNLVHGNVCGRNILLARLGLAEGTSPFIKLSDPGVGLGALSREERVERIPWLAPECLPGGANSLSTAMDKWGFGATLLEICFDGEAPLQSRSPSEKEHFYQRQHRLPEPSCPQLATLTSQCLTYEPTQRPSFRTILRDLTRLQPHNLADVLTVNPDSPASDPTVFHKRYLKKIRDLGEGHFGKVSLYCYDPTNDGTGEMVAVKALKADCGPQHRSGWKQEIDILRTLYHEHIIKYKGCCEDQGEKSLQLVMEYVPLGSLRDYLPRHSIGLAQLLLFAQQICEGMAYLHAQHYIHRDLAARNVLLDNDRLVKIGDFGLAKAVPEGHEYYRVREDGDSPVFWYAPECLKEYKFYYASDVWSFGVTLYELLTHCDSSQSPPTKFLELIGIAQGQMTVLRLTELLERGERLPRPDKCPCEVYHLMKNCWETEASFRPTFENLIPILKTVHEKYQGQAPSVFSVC

Row | IC50 [1] | IC50 [2] | Compound
1 | > 90 µM | > 90 µM | CCc1ccccc1-n1[nH]c(=O)c2cnc(Nc3ccc(F)cn3)cc21 [Compound I-109, 1-(2-ethylphenyl)-6-((5-fluoropyridin-2-yl)amino)-1,2-dihydro-3H-pyrazolo[4,3-c]pyridin-3-one]
2 | < 10 µM | < 10 µM | N#Cc1ccc(-n2[nH]c(=O)c3cnc(NC(=O)C4CC4)cc32)cc1C(F)(F)F [Compound I-93, N-(1-(4-cyano-3-(trifluoromethyl)phenyl)-3-oxo-2,3-dihydro-1H-pyrazolo[4,3-c]pyridin-6-yl)cyclopropanecarboxamide]
3 | < 10 µM | 10 to 30 µM | COc1c(-c2ncn(C)n2)cccc1-n1[nH]c(=O)c2cnc(Nc3cc(C)nc(C)n3)cc21 [Compound I-22, 6-[(2,6-dimethylpyrimidin-4-yl)amino]-1-[2-methoxy-3-(1-methyl-1H-1,2,4-triazol-3-yl)phenyl]-1H,2H,3H-pyrazolo[4,3-c]pyridin-3-one]
4 | < 10 µM | < 10 µM | O=c1[nH]n(-c2ccc(OC(F)(F)F)cc2)c2cc(Nc3ccc(F)cn3)ncc12 [Compound I-70, 6-((5-fluoropyridin-2-yl)amino)-1-(4-(trifluoromethoxy)phenyl)-1,2-dihydro-3H-pyrazolo[4,3-c]pyridin-3-one]
5 | < 10 µM | < 10 µM | COc1cccc(-n2[nH]c(=O)c3cnc(Nc4ccc(F)cn4)cc32)n1 [Compound I-36, 6-((5-fluoropyridin-2-yl)amino)-1-(6-methoxypyridin-2-yl)-1,2-dihydro-3H-pyrazolo[4,3-c]pyridin-3-one]
6 | < 10 µM | < 10 µM | Cc1cc(Nc2cc3c(cn2)c(=O)[nH]n3-c2cccc(F)c2F)nc(C)n1 [Compound I-113, 1-(2,3-difluorophenyl)-6-((2,6-dimethylpyrimidin-4-yl)amino)-1,2-dihydro-3H-pyrazolo[4,3-c]pyridin-3-one]
7 | > 90 µM | > 90 µM | COc1c(-n2[nH]c(=O)c3cnc(Nc4cc(C)nc(C)n4)cc32)cccc1C(F)(F)F [Compound I-103, 6-((2,6-dimethylpyrimidin-4-yl)amino)-1-(2-methoxy-3-(trifluoromethyl)phenyl)-1,2-dihydro-3H-pyrazolo[4,3-c]pyridin-3-one]
8 | < 10 µM | < 10 µM | O=C(Nc1cc2c(cn1)c(=O)[nH]n2-c1cccc(C(F)(F)F)c1)C1CC1 [Compound I-58, N-(3-oxo-1-(3-(trifluoromethyl)phenyl)-2,3-dihydro-1H-pyrazolo[4,3-c]pyridin-6-yl)cyclopropanecarboxamide]
9 | > 90 µM | – | O=C(Nc1cc2c(cn1)c(=O)[nH]n2-c1ccccc1)c1cccnc1 [Compound I-10, N-(3-oxo-1-phenyl-2,3-dihydro-1H-pyrazolo[4,3-c]pyridin-6-yl)nicotinamide]
10 | > 90 µM | – | Cc1cc(Nc2cc3c(cn2)c(=O)[nH]n3-c2cccc(C(N)=O)c2)nc(C)n1 [Compound I-21, 3-(6-((2,6-dimethylpyrimidin-4-yl)amino)-3-oxo-2,3-dihydro-1H-pyrazolo[4,3-c]pyridin-1-yl)benzamide]
11 | < 10 µM | < 10 µM | COc1cc(-n2[nH]c(=O)c3cnc(Nc4ccc(F)cn4)cc32)ccc1F [Compound I-77, 1-(4-fluoro-3-methoxyphenyl)-6-((5-fluoropyridin-2-yl)amino)-1,2-dihydro-3H-pyrazolo[4,3-c]pyridin-3-one]
12 | 10 to 30 µM | > 90 µM | COc1cccc(-n2[nH]c(=O)c3cnc(Nc4cc(OC)ccn4)cc32)c1 [Compound I-45, 1-(3-methoxyphenyl)-6-((4-methoxypyridin-2-yl)amino)-1,2-dihydro-3H-pyrazolo[4,3-c]pyridin-3-one]
13 | < 10 µM | 10 to 30 µM | COc1c(F)cccc1-n1[nH]c(=O)c2cnc(Nc3cc(C)nc(C)n3)cc21 [Compound I-99, 6-((2,6-dimethylpyrimidin-4-yl)amino)-1-(3-fluoro-2-methoxyphenyl)-1,2-dihydro-3H-pyrazolo[4,3-c]pyridin-3-one]
14 | < 10 µM | < 10 µM | Cc1cc(Nc2cc3c(cn2)c(=O)[nH]n3-c2cccc(C(F)(F)F)c2)ncc1F [Compound I-29, 6-((5-fluoro-4-methylpyridin-2-yl)amino)-1-(3-(trifluoromethyl)phenyl)-1,2-dihydro-3H-pyrazolo[4,3-c]pyridin-3-one]
15 | < 10 µM | > 90 µM | COC(=O)Nc1cc2c(cn1)c(=O)[nH]n2-c1ccccc1 [Compound I-126, methyl (3-oxo-1-phenyl-2,3-dihydro-1H-pyrazolo[4,3-c]pyridin-6-yl)carbamate]
16 | > 90 µM | > 90 µM | COc1cccc(-n2[nH]c(=O)c3cnc(Nc4ccnc(OC)n4)cc32)c1 [Compound I-48, 1-(3-methoxyphenyl)-6-((2-methoxypyrimidin-4-yl)amino)-1,2-dihydro-3H-pyrazolo[4,3-c]pyridin-3-one]
17 | > 90 µM | > 90 µM | O=C(Nc1cc2c(cn1)c(=O)[nH]n2-c1ccccc1)c1ccccn1 [Compound I-9, N-(3-oxo-1-phenyl-2,3-dihydro-1H-pyrazolo[4,3-c]pyridin-6-yl)picolinamide]
18 | 10 to 30 µM | 30 to 90 µM | COCCC(=O)Nc1cc2c(cn1)c(=O)[nH]n2-c1ccccc1 [Compound I-7, 3-methoxy-N-(3-oxo-1-phenyl-2,3-dihydro-1H-pyrazolo[4,3-c]pyridin-6-yl)propanamide]
19 | > 90 µM | > 90 µM | CCc1ccccc1-n1[nH]c(=O)c2cnc(NC(=O)C3CC3)cc21 [Compound I-110, N-(1-(2-ethylphenyl)-3-oxo-2,3-dihydro-1H-pyrazolo[4,3-c]pyridin-6-yl)cyclopropanecarboxamide]
20 | < 10 µM | < 10 µM | CS(=O)(=O)c1ccccc1-n1[nH]c(=O)c2cnc(Nc3ccc(F)cn3)cc21 [Compound I-26, 6-((5-fluoropyridin-2-yl)amino)-1-(2-(methylsulfonyl)phenyl)-1,2-dihydro-3H-pyrazolo[4,3-c]pyridin-3-one]
21 | < 10 µM | 10 to 30 µM | Cc1cc(Nc2cc3c(cn2)c(=O)[nH]n3-c2cccc(-c3ncn(C)n3)c2)nc(C)n1 [Compound I-23, 6-((2,6-dimethylpyrimidin-4-yl)amino)-1-(3-(1-methyl-1H-1,2,4-triazol-3-yl)phenyl)-1,2-dihydro-3H-pyrazolo[4,3-c]pyridin-3-one]
22 | < 10 µM | < 10 µM | COc1cccc(-n2[nH]c(=O)c3cnc(Nc4ccccn4)cc32)c1 [Compound I-50, 1-(3-methoxyphenyl)-6-(pyridin-2-ylamino)-1,2-dihydro-3H-pyrazolo[4,3-c]pyridin-3-one]
23 | < 10 µM | < 10 µM | Cc1cc(Nc2cc3c(cn2)c(=O)[nH]n3-c2ccc(C#N)c(C(F)(F)F)c2)nc(C)n1 [Compound I-91, 4-(6-((2,6-dimethylpyrimidin-4-yl)amino)-3-oxo-2,3-dihydro-1H-pyrazolo[4,3-c]pyridin-1-yl)-2-(trifluoromethyl)benzonitrile]
24 | < 10 µM | > 90 µM | COc1cc(-n2[nH]c(=O)c3cnc(Nc4ccc(F)cn4)cc32)ccc1C#N [Compound I-81, 4-(6-((5-fluoropyridin-2-yl)amino)-3-oxo-2,3-dihydro-1H-pyrazolo[4,3-c]pyridin-1-yl)-2-methoxybenzonitrile]
25 | 30 to 90 µM | – | CC(C)N1CCN(c2cc3c(cn2)c(=O)[nH]n3-c2ccccc2)C1=O [Compound I-13, 6-(3-isopropyl-2-oxoimidazolidin-1-yl)-1-phenyl-1,2-dihydro-3H-pyrazolo[4,3-c]pyridin-3-one]
26 | > 90 µM | – | COc1cccc(-n2[nH]c(=O)c3cnc(Nc4cc(C(F)(F)F)ccn4)cc32)c1 [Compound I-43, 1-(3-methoxyphenyl)-6-((4-(trifluoromethyl)pyridin-2-yl)amino)-1,2-dihydro-3H-pyrazolo[4,3-c]pyridin-3-one]
27 | < 10 µM | – | COc1cccc(-n2[nH]c(=O)c3cnc(NC(=O)C4(O)CC4)cc32)c1 [Compound I-124, 1-hydroxy-N-(1-(3-methoxyphenyl)-3-oxo-2,3-dihydro-1H-pyrazolo[4,3-c]pyridin-6-yl)cyclopropane-1-carboxamide]
28 | > 90 µM | – | Cc1cc(Nc2cc3c(cn2)c(=O)[nH]n3-c2ccc(C(N)=O)cc2)nc(C)n1 [Compound I-123, 4-(6-((2,6-dimethylpyrimidin-4-yl)amino)-3-oxo-2,3-dihydro-1H-pyrazolo[4,3-c]pyridin-1-yl)benzamide]
29 | > 90 µM | – | Cc1cc(Nc2cc3c(cn2)c(=O)[nH]n3-c2cccc(S(C)(=O)=O)c2)nc(C)n1 [Compound I-27, 6-((2,6-dimethylpyrimidin-4-yl)amino)-1-(3-(methylsulfonyl)phenyl)-1,2-dihydro-3H-pyrazolo[4,3-c]pyridin-3-one]
30 | > 90 µM | – | O=c1[nH]n(-c2cc(Cl)cc(Cl)c2)c2cc(Nc3ccc(F)cn3)ncc12 [Compound I-97, 1-(3,5-dichlorophenyl)-6-((5-fluoropyridin-2-yl)amino)-1,2-dihydro-3H-pyrazolo[4,3-c]pyridin-3-one]
